Reference: paper PMC6521598, “Identification of GLPG/ABBV-2737, a Novel Class of Corrector, Which Exerts Functional Synergy With Other CFTR Modulators” (Frontiers in Pharmacology, 2019)

Tests used:
Assay type in all cases: cell-based
[1] = biological target: wild type CFTR (Homo sapiens, UniProt P13569); experiment: YFP halide assay, HEK293 cells transfected with wild type CFTR; set-up: expressed in transfected cells; host or cells: HEK293
Procedure: HEK293 cells were transfected with 10–80 ng of plasmid encoding F508del, E92K, P67L, V232D, F508del/G550E, F508del/I539T or wild type CFTR and 20 ng of plasmid encoding YFP (H148Q/I152L/F47L) using jetPEI (Polyplus transfection). Directly after transfection, cells were seeded in black 96-well plates coated with poly-D-lysine at a density of 70,000 cells per well. The next day, cells were treated with corrector(s) for 24 h. After this incubation period, cells were washed twice with DPBS with Ca^2+ and Mg^2+. […] YFP fluorescence was measured using an EnVision plate reader (PerkinElmer). […] The capacity of potentiators to increase CFTR channel function was expressed as 1-(fluorescence 7 s after NaI addition (F)/fluorescence before NaI addition (F0)). […]
Due to the lack of any forskolin activated current upon correction of F508del carrying cells with GLPG2737, we wondered whether GLPG2737 would have an effect on wild type CFTR activity. […] Similar to the observations in the 24 h incubation experiment, a decrease in wild type channel activity was measured with increasing amounts of GLPG2737 (Figure 6B). Since the YFP halide assay was performed using an overexpressing cell system that might not be physiologically relevant, GLPG2737 was also evaluated on normal HBE cells.

[2] = biological target: T1, F508del CFTR (Homo sapiens, UniProt P13569, DEL508-508); experiment: CSE-HRP assay (cell surface expression horseradish peroxidase assay); set-up: University of North Carolina; host or cells: primary human bronchial epithelial cells, F508del/F508del donors; settings: 24 h treatment; for % F508del PM Expression vs control: VX809 rescue = 100%
Procedure: CFBE41o^- TetON cells expressing HRP tagged F508del-CFTR ([Veit et al., 2012]) were seeded at a density of 2000 cells per well in white 384-well plates (Greiner). Medium containing 500 ng/ml doxycycline was used to induce expression of the F508del-CFTR–HRP construct. After 3 days, cells were treated with corrector and/or potentiator compounds and transferred to an incubator at 33°C. On day 4, cells were washed five times with PBS containing Ca^2+ and Mg^2+ using a Bio-Tek plate washer and incubated with a chemiluminescent HRP substrate (SuperSignal West Pico Chemiluminescent Substrate, Thermo Scientific) for 15 min. Chemiluminescence was measured using an Envision plate reader (Perkin Elmer).
(§1) To discover novel correctors several high throughput screening campaigns were performed using cell based assays measuring plasma membrane expression of the F508del CFTR protein. The CSE-HRP system used CFBE41O-cells, a lung epithelial cell line, stably transfected with F508del CFTR tagged with HRP in the fourth extracellular loop ([Veit et al., 2014]). The CSE-MEM system, used U2OS cells, an osteosarcoma epithelial cell line, stably transfected with F508del CFTR tagged with a Pro-link moiety at the C-terminal and a plasma membrane located EA (enzyme acceptor) moiety. The latter cells were created by DiscoverX and the assay further optimized to allow robust evaluation in a high throughput manner.
For screening, cells were pre-incubated with compound for 24 h prior to read-out to allow sufficient time for de novo synthesis, and cellular trafficking of F508del-CFTR to reach steady state levels at the plasma membrane. A diverse set of 105,000 small molecules was screened in both cell assays in presence and absence of a fixed concentration (3 μM) of VX809. For the identification of suitable starting points we primarily focused on hits that increased the F508del CFTR surface expression under all conditions as exemplified by compound HIT1.

[3] = biological target: T1, F508del CFTR; experiment: CSE-MEM assay (cell surface expression DiscoverX assay); set-up: University of North Carolina; host or cells: primary human bronchial epithelial cells, F508del/F508del donors; settings: 24 h treatment; for % F508del PM Expression vs control: VX809 rescue = 100%
Procedure: Twenty-five microliters of cell plating reagent 5 (DiscoverX, 93-0563R5A) containing 5000 U2OS EA-MEM F508del_CFTR cells per well was added in white 384 well plates (Greiner, 781080) on day 1 and incubated overnight at 37°C, 5% CO2. On day 2, medium was refreshed and compounds (1 μl of 26 × concentrated solution) were added to the cells. All compounds used during the experiment were first dissolved in DMSO to a 10 mM solution which was then diluted to a 26 × solution in the medium just prior to the experiment. Cells were incubated with compounds for 20–24 h at 37°C, 5% CO2. On day 3, the plates were first incubated at room temperature for 1 h. After 1 h the plates were washed two times with PBS +/+ (Gibco, 14040-091) and 30 μL PBS +/+ (Gibco, 14040-091) was added after the last wash step. Then 15 μL of substrate (DiscoverX, 93-0247: 1 part Flash cell assay buffer + 4 parts Flash substrate) was added per well. After 1 h of incubation at room temperature in the dark, the luminescence signal was read on an EnVision plate reader (PerkinElmer).
as §1
For screening, cells were pre-incubated with compound for 24 h prior to read-out to allow sufficient time for de novo synthesis, and cellular trafficking of F508del-CFTR to reach steady state levels at the plasma membrane. […]

T1 sequence (P13569 with tags, fused parts or gaps DEL508-508): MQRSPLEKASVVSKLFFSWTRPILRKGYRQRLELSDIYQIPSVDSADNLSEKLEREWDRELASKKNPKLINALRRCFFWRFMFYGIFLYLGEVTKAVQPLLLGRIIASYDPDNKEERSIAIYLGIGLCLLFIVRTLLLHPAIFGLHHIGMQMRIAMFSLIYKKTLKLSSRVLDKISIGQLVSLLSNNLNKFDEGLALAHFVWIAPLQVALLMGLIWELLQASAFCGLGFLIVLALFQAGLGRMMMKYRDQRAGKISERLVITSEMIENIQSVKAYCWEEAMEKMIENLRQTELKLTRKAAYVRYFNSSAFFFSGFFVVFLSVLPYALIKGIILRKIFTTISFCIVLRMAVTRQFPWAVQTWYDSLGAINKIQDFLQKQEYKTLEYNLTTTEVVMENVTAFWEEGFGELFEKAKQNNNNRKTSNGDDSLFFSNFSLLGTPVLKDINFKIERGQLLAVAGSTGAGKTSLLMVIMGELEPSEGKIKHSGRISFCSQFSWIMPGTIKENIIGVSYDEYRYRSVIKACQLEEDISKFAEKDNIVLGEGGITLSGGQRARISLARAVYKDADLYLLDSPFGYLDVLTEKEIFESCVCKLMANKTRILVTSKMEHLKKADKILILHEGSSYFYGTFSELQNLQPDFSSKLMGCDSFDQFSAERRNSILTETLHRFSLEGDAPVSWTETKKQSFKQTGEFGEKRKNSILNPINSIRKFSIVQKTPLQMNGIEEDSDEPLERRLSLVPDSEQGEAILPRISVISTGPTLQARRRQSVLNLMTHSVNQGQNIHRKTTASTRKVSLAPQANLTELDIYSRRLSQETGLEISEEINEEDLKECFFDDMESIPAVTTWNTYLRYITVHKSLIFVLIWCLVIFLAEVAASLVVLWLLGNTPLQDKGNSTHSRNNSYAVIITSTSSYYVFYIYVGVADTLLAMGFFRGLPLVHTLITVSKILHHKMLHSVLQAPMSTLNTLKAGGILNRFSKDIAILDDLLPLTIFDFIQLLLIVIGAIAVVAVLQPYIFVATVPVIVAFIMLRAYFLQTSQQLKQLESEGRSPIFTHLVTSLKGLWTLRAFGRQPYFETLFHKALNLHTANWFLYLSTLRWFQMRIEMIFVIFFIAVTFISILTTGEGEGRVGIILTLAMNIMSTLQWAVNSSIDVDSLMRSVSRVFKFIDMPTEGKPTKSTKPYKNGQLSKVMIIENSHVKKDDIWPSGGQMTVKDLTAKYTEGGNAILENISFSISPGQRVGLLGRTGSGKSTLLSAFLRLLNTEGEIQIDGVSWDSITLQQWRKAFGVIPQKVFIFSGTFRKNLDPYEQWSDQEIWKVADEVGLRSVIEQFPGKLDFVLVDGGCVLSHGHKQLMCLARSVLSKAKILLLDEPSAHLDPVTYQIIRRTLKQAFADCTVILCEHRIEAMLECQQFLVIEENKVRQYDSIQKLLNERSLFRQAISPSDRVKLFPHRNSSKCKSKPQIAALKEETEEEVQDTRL
wild type CFTR, sequence (P13569 whole entry): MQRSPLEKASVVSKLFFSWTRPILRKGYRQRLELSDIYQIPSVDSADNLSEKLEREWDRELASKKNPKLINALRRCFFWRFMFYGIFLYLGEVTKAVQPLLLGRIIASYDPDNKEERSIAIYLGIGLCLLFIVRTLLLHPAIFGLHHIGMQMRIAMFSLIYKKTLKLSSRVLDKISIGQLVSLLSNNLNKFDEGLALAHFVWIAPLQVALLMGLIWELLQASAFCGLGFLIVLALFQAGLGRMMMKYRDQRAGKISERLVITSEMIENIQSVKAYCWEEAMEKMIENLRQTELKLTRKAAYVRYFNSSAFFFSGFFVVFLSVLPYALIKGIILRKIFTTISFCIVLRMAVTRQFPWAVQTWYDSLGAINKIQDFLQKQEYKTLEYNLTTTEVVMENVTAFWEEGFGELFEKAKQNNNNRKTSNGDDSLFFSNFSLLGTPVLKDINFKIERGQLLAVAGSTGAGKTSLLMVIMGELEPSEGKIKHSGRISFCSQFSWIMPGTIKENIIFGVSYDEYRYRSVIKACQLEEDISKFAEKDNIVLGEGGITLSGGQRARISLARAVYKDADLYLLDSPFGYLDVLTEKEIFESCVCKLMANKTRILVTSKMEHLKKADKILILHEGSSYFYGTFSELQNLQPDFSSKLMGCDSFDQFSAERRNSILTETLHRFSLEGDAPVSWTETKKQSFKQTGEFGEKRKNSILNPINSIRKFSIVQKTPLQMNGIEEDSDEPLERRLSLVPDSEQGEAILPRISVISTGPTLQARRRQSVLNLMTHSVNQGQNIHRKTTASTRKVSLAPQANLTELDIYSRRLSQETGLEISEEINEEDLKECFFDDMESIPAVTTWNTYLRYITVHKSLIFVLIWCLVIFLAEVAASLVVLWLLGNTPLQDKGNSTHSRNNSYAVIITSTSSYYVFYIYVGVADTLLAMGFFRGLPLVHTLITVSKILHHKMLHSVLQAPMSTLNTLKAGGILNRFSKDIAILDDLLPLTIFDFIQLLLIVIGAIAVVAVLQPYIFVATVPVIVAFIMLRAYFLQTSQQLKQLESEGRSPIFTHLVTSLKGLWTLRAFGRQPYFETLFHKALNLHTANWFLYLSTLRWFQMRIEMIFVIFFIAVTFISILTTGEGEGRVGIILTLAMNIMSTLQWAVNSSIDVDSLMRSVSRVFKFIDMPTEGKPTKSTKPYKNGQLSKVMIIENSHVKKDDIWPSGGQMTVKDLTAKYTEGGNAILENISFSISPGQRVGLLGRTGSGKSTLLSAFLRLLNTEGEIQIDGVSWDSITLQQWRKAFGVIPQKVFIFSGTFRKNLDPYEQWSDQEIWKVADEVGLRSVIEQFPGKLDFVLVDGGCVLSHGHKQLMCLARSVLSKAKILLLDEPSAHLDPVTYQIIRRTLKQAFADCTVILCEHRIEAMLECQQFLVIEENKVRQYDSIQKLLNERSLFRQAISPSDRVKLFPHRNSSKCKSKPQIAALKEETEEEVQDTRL

- wild type CFTR activity ([1]; 24 h incubation with a dose range, 100 nM FSK): dose dependent decrease
- wild type channel activity ([1]; acute addition together with forskolin (100 nM)): decrease
- % F508del PM Expression vs control ([2]; + 3 μM VX809): 416%
- EC50 ([2]; no co-corrector): 809 nM
- % F508del PM Expression vs control ([2]; no co-corrector): 264%
- % F508del PM Expression vs control ([3]; + 3 μM VX809): 415%
- EC50 ([3]; no co-corrector): 707 nM
- % F508del PM Expression vs control ([3]; no co-corrector): 197%
Structure (SMILES): COC1CCN(C2CCN(c3cc(C(=O)NS(=O)(=O)N(C)C)nc4c3c(C3CCC3)nn4-c3ccc(F)cc3)CC2)CC1 [GLPG2737]
